Experiment: gradient 5% acetonitrile 3 min, to 50% in 2 min, to 85% in 15 min, held 3 min, 100 µL/min
Conditions: column: Zorbax Extend-C18 2.1 x 50 mm; eluents: water / acetonitrile, 0.1% formic acid
Outline: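 Each retention time is based on an adduct peak selected computationally and verified by manual inspection. Measurements used HPLC–quadrupole time-of-flight mass spectrometry in positive and negative ionization mode on mixtures of ~100 pure standards. Chromatography ran on a Zorbax Extend-C18 column (2.1 × 50 mm, 1.8 μm) at 100 μL/min with water and acetonitrile, each containing 0.1% formic acid, and dead and dwell volumes of 40 μL and 900 μL.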

Row | Structure (SMILES) | RP-LC retention time [s]
1 | O=C(Cn1c(=O)n(-c2ccc(F)cc2)c2ncccc21)NCCN1CCCCC1 | 592
2 | CCC(=O)Nc1sc2c(c1C(=O)Nc1ccccc1)CCCC2 | 704
3 | COCCC(=O)NCCC1CCN(C(=O)Nc2cc(F)cc(F)c2)CC1 | 695
4 | CC(Oc1ccc(C(C)(C)C)cc1)C(=O)N(Cc1ccco1)C1CCS(=O)(=O)C1 (stereo not given) | 1050
5 | COc1ccc(C2CC(=O)c3c([nH]c(C(=O)OC4CCCCC4)c3C)C2)cc1OC (stereo not given) | 1070
6 | Cc1ccc(C)c(S(=O)(=O)N2C[C@@H](F)C[C@H]2C(=O)N2CCCCC2)c1 | 856
7 | CC(C)NC(=O)c1ccnn1C | 604
8 | Cc1cc(=O)n(CCc2ccccc2)c(N2CCCC2)n1 | 742
9 | CNC(=O)c1n[nH]c2c1CCCCCC2 | 685
10 | CCOc1ccccc1N1CCN(C(=O)C2CCN(c3ncnc4c3oc3ccccc34)CC2)CC1 | 814
11 | CCNC(=O)N1CC=C(C(=O)Nc2cccc(F)c2)CC1 | 673
12 | CCC(=O)Nc1ccc2c(c1)CN(C(=O)c1ccc(Cl)cc1)C(C(=O)N1CCCC1)C2 (stereo not given) | 738
13 | O=C(NCc1ccccc1)c1ccc(=O)n(CCN2CCCC2)c1 | 579
14 | Cc1cccc(S(=O)(=O)N2CC3CN(C(=O)CC4CCCC4)CC(C2)O3)c1 | 890
15 | COC(=O)c1c(C)[nH]c(C(=O)N2CCCC(C(=O)NCc3ccc(OC(C)C)cc3)C2)c1C (stereo not given) | 812
16 | CC(C)CCNC(=O)C1CCN(c2nc3ccsc3c(=O)n2Cc2ccccc2)CC1 | 890
17 | CCc1c(CN2CCN(c3ccccn3)CC2)csc1C | 596
18 | Cc1nn(CC(=O)NCCCN(C)C)c(=O)c2nc(-c3ccccc3)sc12 | 604
19 | CCOC(=O)C1CCN(C(=O)c2ccc3c(c2)NC(=O)C2CCCCN32)CC1 (stereo not given) | 554
20 | Cc1cc(C(=O)N2CCCCC2)c2c(=O)n(CC(=O)NC3CCCCC3)c(=O)n(C)c2n1 | 786
21 | O=C(c1cnn(-c2ccc([N+](=O)[O-])cc2)c1C1CCNCC1)N1CCN(c2ccccn2)CC1 | 563
22 | O=C(COc1ccccc1F)NCC1(c2cccs2)CCOCC1 | 790
23 | COC(=O)c1cccc(NS(=O)(=O)c2cc3n(c2)CCN(C)C3=O)c1 | 683
24 | CS(=O)(=O)N1CCC(C(=O)NCc2ccccc2Cl)Oc2ccccc21 (stereo not given) | 888
25 | COC(=O)c1cccc(COC(=O)C2=CN(C)S(=O)(=O)N=C2C)c1 | 874
26 | CC(C)c1nc(-c2ccc([N+](=O)[O-])cc2)cs1 | 1120

Row | Structure (SMILES) | RP-LC retention time [s]
27 | Cn1ccc2cc(CCC(=O)N3CCN(c4ccc(F)cc4)CC3)ccc21 | 951
28 | COC(=O)c1nnn(-c2cc(Cl)ccc2C)c1C(=O)OC | 933
29 | COc1ccc(C(CC(=O)NCCN2CCN(C)CC2)N2Cc3ccccc3C2=O)cc1OC (stereo not given) | 579
30 | COC(=O)c1c(C)[nH]c(C(=O)N2CCCC(C(=O)NCc3ccc(OC)cc3OC)C2)c1C (stereo not given) | 755
31 | CN(CCCNC(=O)c1ccc2c(c1)NC(=O)C1CCCCN21)Cc1ccccc1 (stereo not given) | 617
32 | COc1ccc(N2CC(C(=O)N3CC4CC3C(=O)O4)CC2=O)cc1 (stereo not given) | 598
33 | COc1ccc2c(c1)C1(CCN(C(=O)c3ccccc3OC)C1)C(=O)N2C (stereo not given) | 725
34 | Nc1cc(C2CCN(C(=O)c3ccc4c(c3)OCO4)CC2)no1 | 651
35 | CC(=O)OCOC(c1ccc2ccccc2c1)P(=O)(OCOC(C)=O)OCOC(C)=O (stereo not given) | 854
36 | CCN1C(=O)c2c(C(=O)NCCCc3ccccc3)ncn2CC1(C)C(=O)NC1CCCC1 (stereo not given) | 822
37 | CS(=O)(=O)N1CCC(C(=O)N2CCC(COCc3ccccc3)CC2)CC1 | 772
38 | O=C(NCC1CCN(Cc2cccs2)CC1)C1(c2ccccc2)CCOCC1 | 578
39 | Cc1[nH]c(C)c(S(=O)(=O)N2CCC(C(=O)NC(C)(C)C)CC2)c1C(=O)N1CCCCC1 | 710
40 | CCc1nc2c(=O)n(CC(=O)N3CCN(c4ccc(Cl)cc4)CC3)nc(C)c2s1 | 854
41 | O=C(c1ccccc1F)N1CCC(CNC(=O)C2(c3ccccc3)CCOCC2)CC1 | 706
42 | Cc1nn(CC(=O)NC(C)C)c(=O)c2nc(-c3ccccc3)sc12 | 733
43 | CCCNC(=O)C1CCCN(c2ccc(SCC(=O)Nc3cc(C)c(Cl)cc3OC)nn2)C1 (stereo not given) | 838
44 | COCCN1C(=O)CCc2cc(NC(=O)c3cncc(Br)c3)ccc21 | 716
45 | CCc1ccc(Oc2cc(N3CCC(C(=O)NCCCOC)CC3)ncn2)cc1 | 578
46 | CCOC(=O)COc1cccc2c1CCN(Cc1ccc(Cl)cc1)C2=O | 934
47 | Cn1cc(S(=O)(=O)N2CCC(C(=O)NCc3cccs3)CC2)cc1C(=O)N1CCCC1 | 706
48 | CCC1(C(=O)NCCCN2CCc3ccccc3C2)CCCCC(=O)N1 (stereo not given) | 582
49 | N[C@H]1CCN(O)C1=O | 627
50 | O=C(Cn1c(=O)nc(-c2ccccc2)c2ccccc21)N1CCN(c2ccccn2)CC1 | 609
51 | O=S(=O)(c1ccc(-c2csc(Nc3cccc4ccccc34)n2)cc1)N1CCCCC1 | 1280
52 | O=C(CSc1nnc2c3sc(N4CCCC4)nc3ncn12)Nc1ccc(F)c(F)c1 | 863

Continued, values first:

Row | RP-LC retention time [s] | Structure (SMILES)
53 | 570 | Cc1ccnc(Nc2ccc(NCCNS(=O)(=O)Cc3ccccc3)nn2)c1
54 | 920 | Cc1cc([N+](=O)[O-])ccc1NC(=O)C1COc2ccccc2O1 (stereo not given)
55 | 864 | Cc1ccc2nc(-c3ccc(NC(=O)c4cc5cccnc5n(C)c4=O)cc3)sc2c1
56 | 588 | COc1ccc(Nc2c(C(=O)N3CCCCC3)cnc3nc(C)ccc23)cc1OC
57 | 721 | CCn1ccc2c(cc(C(=O)Nc3c(C)cccc3C)n2C)c1=O
58 | 865 | Cc1[nH]c2ccc(F)cc2c1CCNS(=O)(=O)c1ccc(F)cc1
59 | 974 | COc1cc(NC(=O)Cc2csc3nc(-c4cccc(Br)c4)cn23)cc(OC)c1
60 | 1130 | CCCn1nnc(NCc2ccc(-c3cccc(Cl)c3C)o2)n1
61 | 640 | CN(CCNC(=O)Cn1c2ccccc2c2cnn(C)c(=O)c21)Cc1ccccc1
62 | 747 | Cc1c2cnn(CC(=O)NCC3CCCO3)c(=O)c2c(C)n1Cc1ccccc1F (stereo not given)
63 | 603 | CC(C)NC(=O)CN1CCN(c2cc(C(=O)O)c3cc(NC(=O)c4ccc(F)cc4)ccc3n2)CC1
64 | 1380 | COc1ccc(OC)c(Nc2nc(N(C)C)nc3c2cnn3-c2ccccc2)c1
65 | 632 | CS(=O)(=O)c1ccc(Cc2nnc(NC(=O)C3CCCC3)o2)cc1
66 | 735 | O=C(NC1CCN(c2cc(-c3ccc(F)cc3)[nH]n2)C1)c1cccc(F)c1 (stereo not given)
67 | 848 | CC(C)NC(=O)Cn1c2ccccc2c2ncn(Cc3nc(-c4ccccc4)no3)c(=O)c21
68 | 730 | CCCNC(=O)N1CC(Oc2cccc(-c3nc(C)no3)c2)C1
69 | 606 | COc1ccc(C(=O)Oc2ccc(/C=C/c3ccncc3)cc2OC)cc1OC
70 | 1300 | Cc1ccc(-c2coc(-c3cccc(NS(=O)(=O)c4ccc(Br)s4)c3)n2)cc1
71 | 1100 | Cc1ccc(-n2c(=O)c3sccc3n(Cc3nc(-c4cccc(C(F)(F)F)c4)no3)c2=O)cc1

Row | RP-LC retention time [s] | Structure (SMILES)
72 | 913 | O=C(c1ccc(F)c(Cl)c1)N1CCCC(c2nnc(-c3ccccc3)o2)C1 (stereo not given)
73 | 744 | CCS(=O)(=O)Nc1ccc(-c2noc(CNC(=O)c3ccccc3)n2)cc1
74 | 736 | Cc1ccc(C)c(NC(=O)Cc2nnc(-c3ccc4ncccc4c3)o2)c1
75 | 974 | Cc1cccc(-c2noc(C3CCCN3C(=O)NCc3ccc(F)cc3)n2)c1 (stereo not given)
76 | 633 | Cc1ccc2c(C(=O)NCCc3cccs3)cc(NC(=O)C3CC3)cc2n1
77 | 1000 | CCn1cc(-c2nc(C)c(C(=O)NCc3ccc(C)cc3)s2)c2cccnc21
78 | 825 | COc1ccc(CNC(=O)N2CC(Oc3ccc(-c4nc(C)no4)cc3)C2)cc1
79 | 1260 | CCCN1C(=O)COc2ccc(-c3noc(C(C)Oc4cccc(Cl)c4)n3)cc21 (stereo not given)
80 | 668 | COCCNC(=O)c1nnc(-c2ccc(S(=O)(=O)N3CCOCC3)cc2)o1
81 | 668 | CN(C)CCNc1ccc(-c2nc(-c3ccc(F)cc3)no2)cn1
82 | 719 | CN(Cc1nc2ccccc2n1Cc1ccccc1F)C(=O)c1ccco1
83 | 1110 | Cc1ccc(C)c(-c2nc(NC(=O)c3cc(C)on3)sc2C)c1
84 | 845 | Cc1cc(NC(=O)CSc2nnc(C(C)C)c3cnn(-c4ccc(C)c(C)c4)c23)no1
85 | 726 | CCC1CCCCN1Cc1nc(Cn2ccn3nc(-c4ccc(C)cc4)cc3c2=O)no1 (stereo not given)
86 | 750 | Cc1cccc2nc(-c3ccc(Cl)cc3)c(Nc3ccc4c(c3)OCO4)n12
87 | 1060 | Cc1ccc(-c2nnc(Cc3nc(-c4cccc(F)c4)no3)o2)cc1
88 | 1190 | O=C(Nc1ccccc1Cl)c1cc(C2CC2)n2nccc2n1
89 | 1060 | COc1cccc(-c2noc(Cc3nnc(-c4ccc(C)c(C)c4)o3)n2)c1OC
90 | 789 | Cc1nc(OCC(=O)Nc2ccc(Cl)cc2F)c2ccccc2n1

From the METLIN SMRT retention time set (Domingo-Almenara et al. 2019)
